In the NIST ThermoML archive (doi:10.1021/je800046k):

Assay: xn = mol fraction of the nth substance listed
Conditions: for surface tension liquid-gas: Pendant drop shape; for mass density: 101 kPa, Liquid

Cc1ccc(C)c(C)c1 [1,2,4-trimethylbenzene] + CC(=O)OC(C)C
Conditions | mass density [kg/m3] | surface tension liquid-gas [mN/m]
298.15 K, x2 = 0 | 871.71 | 29.3
298.15 K, x2 = 0.0492 | 871.44 | 28.8
298.15 K, x2 = 0.101 | 871.17 | 28.25
298.15 K, x2 = 0.1507 | 870.9 | 27.69
298.15 K, x2 = 0.1995 | 870.64 | 27.13
298.15 K, x2 = 0.251 | 870.36 | 26.6
298.15 K, x2 = 0.3006 | 870.1 | 26.09
298.15 K, x2 = 0.3513 | 869.83 | 25.6
298.15 K, x2 = 0.4008 | 869.56 | 25.15
298.15 K, x2 = 0.45 | 869.3 | 24.75
298.15 K, x2 = 0.4998 | 869.03 | 24.34
298.15 K, x2 = 0.5498 | 868.76 | 23.99
298.15 K, x2 = 0.6007 | 868.49 | 23.64
298.15 K, x2 = 0.6492 | 868.23 | 23.33
298.15 K, x2 = 0.7004 | 867.95 | 23.05
298.15 K, x2 = 0.7501 | 867.68 | 22.78
298.15 K, x2 = 0.7968 | 867.42 | 22.56
298.15 K, x2 = 0.8495 | 867.12 | 22.34
298.15 K, x2 = 0.8995 | 866.84 | 22.15
298.15 K, x2 = 0.9492 | 866.55 | 21.99
308.15 K, x2 = 0 | 863.68 | 28.24
308.15 K, x2 = 0.0488 | 863.27 | 27.69
308.15 K, x2 = 0.0999 | 862.84 | 27.12
308.15 K, x2 = 0.1499 | 862.42 | 26.56
308.15 K, x2 = 0.2002 | 861.99 | 26
308.15 K, x2 = 0.2504 | 861.56 | 25.48
308.15 K, x2 = 0.3001 | 861.13 | 24.96
308.15 K, x2 = 0.3519 | 860.67 | 24.47
308.15 K, x2 = 0.4 | 860.24 | 24.04
308.15 K, x2 = 0.45 | 859.79 | 23.62
308.15 K, x2 = 0.4964 | 859.37 | 23.24
308.15 K, x2 = 0.5495 | 858.89 | 22.86
308.15 K, x2 = 0.6008 | 858.42 | 22.51
308.15 K, x2 = 0.6499 | 857.96 | 22.21
308.15 K, x2 = 0.7004 | 857.49 | 21.88
308.15 K, x2 = 0.7494 | 857.03 | 21.67
308.15 K, x2 = 0.7986 | 856.55 | 21.43
308.15 K, x2 = 0.85 | 856.05 | 21.2
308.15 K, x2 = 0.8997 | 855.56 | 21.05
308.15 K, x2 = 0.9498 | 855.05 | 20.89
313.15 K, x2 = 0 | 859.58 | 27.71
313.15 K, x2 = 0.0494 | 859.1 | 27.14
313.15 K, x2 = 0.0983 | 858.61 | 26.56
313.15 K, x2 = 0.1504 | 858.09 | 26
313.15 K, x2 = 0.1999 | 857.59 | 25.44
313.15 K, x2 = 0.2506 | 857.07 | 24.93
313.15 K, x2 = 0.3004 | 856.55 | 24.41
313.15 K, x2 = 0.3508 | 856.02 | 23.92
313.15 K, x2 = 0.3995 | 855.5 | 23.51
313.15 K, x2 = 0.4493 | 854.97 | 23.08
313.15 K, x2 = 0.4992 | 854.43 | 22.65
313.15 K, x2 = 0.5492 | 853.88 | 22.29
313.15 K, x2 = 0.6 | 853.32 | 21.94
313.15 K, x2 = 0.6493 | 852.77 | 21.65
313.15 K, x2 = 0.6995 | 852.2 | 21.33
313.15 K, x2 = 0.7501 | 851.62 | 21.09
313.15 K, x2 = 0.8 | 851.04 | 20.88
313.15 K, x2 = 0.8504 | 850.44 | 20.65
313.15 K, x2 = 0.9004 | 849.84 | 20.52
313.15 K, x2 = 0.9478 | 849.26 | 20.37
